Data published in US20240115557A1, “INHIBITORS OF RNA-GUIDED NUCLEASES AND USES THEREOF” (The Brigham and Women's Hospital, Inc., priority 2022, published 2024).

Biological target: T1, SaCas9 (Staphylococcus aureus, UniProt J7RUA5)
T1 sequence (J7RUA5 1-1053): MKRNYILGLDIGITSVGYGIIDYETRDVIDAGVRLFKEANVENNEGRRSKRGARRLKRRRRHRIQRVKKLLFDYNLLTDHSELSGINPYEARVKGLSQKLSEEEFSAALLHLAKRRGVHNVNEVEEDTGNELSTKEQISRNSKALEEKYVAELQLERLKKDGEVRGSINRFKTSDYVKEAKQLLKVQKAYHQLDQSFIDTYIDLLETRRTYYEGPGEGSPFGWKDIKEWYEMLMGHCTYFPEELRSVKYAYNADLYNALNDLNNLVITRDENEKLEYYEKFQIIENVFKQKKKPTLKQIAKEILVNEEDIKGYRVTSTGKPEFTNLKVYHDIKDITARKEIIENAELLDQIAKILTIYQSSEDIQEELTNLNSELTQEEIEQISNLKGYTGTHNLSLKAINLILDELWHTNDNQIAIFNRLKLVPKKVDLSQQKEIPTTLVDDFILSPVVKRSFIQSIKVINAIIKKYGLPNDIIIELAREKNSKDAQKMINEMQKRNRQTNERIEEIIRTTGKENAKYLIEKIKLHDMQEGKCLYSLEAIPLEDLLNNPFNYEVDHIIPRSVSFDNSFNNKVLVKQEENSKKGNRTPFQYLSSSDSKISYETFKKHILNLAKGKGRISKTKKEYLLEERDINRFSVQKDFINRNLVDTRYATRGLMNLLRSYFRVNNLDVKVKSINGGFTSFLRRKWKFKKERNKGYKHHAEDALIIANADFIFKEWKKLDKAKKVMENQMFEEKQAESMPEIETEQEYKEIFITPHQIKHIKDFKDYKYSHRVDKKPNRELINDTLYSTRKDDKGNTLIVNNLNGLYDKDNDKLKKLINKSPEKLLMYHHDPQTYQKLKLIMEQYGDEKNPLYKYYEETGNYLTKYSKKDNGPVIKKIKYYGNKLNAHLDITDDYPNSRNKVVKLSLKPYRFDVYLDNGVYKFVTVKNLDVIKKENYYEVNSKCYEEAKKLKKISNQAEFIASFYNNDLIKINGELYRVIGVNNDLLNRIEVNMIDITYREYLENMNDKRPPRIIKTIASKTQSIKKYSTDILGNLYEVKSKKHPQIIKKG
Experiment: Strand displacement assay, SaCas9 primary screen
Type: biochemical
Settings: for Auto Zscore Rep 1 / Auto Zscore Rep 2 / Normalized Zscore Rep 1 / Normalized Zscore Rep 2: SaCas9 primary screen; for Auto Zscore Rep 1 / Normalized Zscore Rep 1: replicate 1; for Auto Zscore Rep 2 / Normalized Zscore Rep 2: replicate 2; for Normalized Zscore Rep 1 / Normalized Zscore Rep 2: weaker potential hits; for 3 sigma Hit: flag 1 = hit at 3 sigma; for 5 sigma Hit: flag 1 = hit at 5 sigma
How it was run: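 Cas9 RNP (1:1.2 protein:gRNA) pre-formed in 20 mM Tris-HCl pH 7.5, 100 mM KCl, 5 mM MgCl2, used at 10 nM (2× stock) with Alexa-Fluor 647 substrate/quencher at 1 nM/5 nM (2× stock). Reaction ran 2.5 h at 37°C; strand displacement read as fluorescence. Hits called by Z-score: 3–5σ weak, >5σ strong.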

SMILES	Auto Zscore Rep 1	Auto Zscore Rep 2	Normalized Zscore Rep 1	Normalized Zscore Rep 2	3 sigma Hit	5 sigma Hit
CN(C)S(=O)(=O)Nc1ccc(N2CCC(CCN3CCOCC3)CC2)c(C(=O)O)c1 [Compound F294-0900]	−2.121	0.2518	0.2307	0.229	1	1
CN(C)S(=O)(=O)Nc1ccc(N2CCCC(CN3CCCC3)C2)c(C(=O)O)c1 (stereo not drawn) [Compound F294-0983]	−0.3877	−0.5875	0.2894	0.2577	1	1
